Test results reported in patent publication US9156874B2, “Double-liver-targeting phosphoramidate and phosphonoamidate prodrugs” (Nanjing Molecular Research, Inc., priority 2011, dated 2015).

How the values were obtained:
[1] = Pharmacokinetic (PK) study in rats, plasma and liver levels by LC/MS-MS; assay type: in vivo, SD rats; details: for oral bioavailability: rats
Description: Pharmacokinetic (PK) study of ester prodrug (FDURPAE), parent drug (FDUR) and prodrug in sodium salt form (FDURPAN) in rats were completed according to following procedure.
SD rats (250-300 g, male, N=24) were used for FDURPAE, FDUR and FDURPAN, purchased from SLAC Laboratory Animal Co. LTD Qualification No.: SCXK SH 2007-0005, 13264. FDURPAE (0.096 mmol, 52.17 mg/kg) and FDUR (0.096 mmol, 23.7 mg/kg) were dosed orally by gavage with a single dose of each compound to rats in a volume of 5 mL/kg in 0.5% carboxymethylcellulose sodium. FDURPAN (0.096 mmol, 50.24 mg) was dosed both orally or iv by gavage with a single dose to rats in a volume of 5 mL/kg in water. The animal was restrained manually at designated time points. Approximately 500 μL of blood/time point was collected into K2EDTA tube via cardiac puncture for terminal bleeding under anesthesia with Isoflurane. Blood samples were put on ice after collection and then centrifuged to obtain plasma sample (2000 g, 5 min, 4° C.) within 15 minutes of sampling. […] All the plasma samples were immediately quenched for protein precipitation. Liver samples were removed at designated time points by first sacrificing the animal by CO2 inhalation, then perfusing the liver with ice cold saline and removing the left middle liver lobe, which was then snap frozen in dry ice. Liver samples were stored at approximately −80° C. until analysis. The liver homogenate was then processed for further analysis by LC/MS-MS. Plasma and liver samples were stored at approximately −80° C. until analysis.
Concentrations of parent drug and possible metabolites in both plasma and liver including FDURPAN (stable metabolite of FDURPAE), FDUR, 5FU and FDUR-MP were determined by LC/MS-MS, respectively.

[2] = system: HCV subgenomic replicon; test: HCV replicon assay (Huh-7, luciferase reporter); assay type: cell-based
Description: Anti-Hepatitis C Activity. Anti-HCV activity and cytotoxicity of compounds disclosed herein were assayed following the method described in WO 2007/027248.
The anti-HCV activity and toxicity of the exemplary compounds can be tested in two biological assays—a cell-based HCV replicon assay and cytotoxicity assay (WO 2007/027248).
A human hepatoma cell line (Huh-7) containing replicating HCV subgenomic replicon with a luciferase reporter gene (luc-ubi-neo) was used to evaluate anti-HCV activity of the compounds. In this assay, level of luciferase signal correlates with the viral RNA replication directly. The HCV replicon-reporter cell line (NK/luc-ubi-neo) was cultured in DMEM medium supplemented with 10% fetal bovine serum and 0.5 mg/ml Geneticin (G418). Cells were maintained in a subconfluent state to ensure high levels of HCV replicon RNA synthesis.
To evaluate the antiviral activity of compounds, serial dilutions were prepared with concentrations ranging from 0.14 to 300 μM. Diluted compounds were transferred to a 96-well plate followed by the addition of replicon cells (6000 cells per well). Cells were incubated with the compounds for 48 h after which luciferase activity was measured. Reduction of luciferase signal reflected the decrease of HCV replicon RNA in the treated cells and used to determine the EC50 value (concentration which yielded a 50% reduction in luciferase activity).

| detection of active drug FDUR-MP in plasma ([1]; rat, oral administration) | detection of metabolite 5FU in plasma ([1]; rat, oral administration) | SMILES | oral bioavailability [1] | anti-HCV activity [2] |
| --- | --- | --- | --- | --- |
| – | – | Cc1ccccc1COP(=O)(NCc1ccccc1)OCC1OC(n2cc(F)c(=O)[nH]c2=O)CC1O (stereo not drawn) [F4] | very low | – |
| – | – | CC1(F)C(O)C(COP(=O)(NCc2ccccc2)OCc2ccccc2)OC1n1ccc(=O)[nH]c1=O (stereo not drawn) [F2] | – | did not show any anti-HCV activity |
| – | – | Cc1ccccc1COP(=O)(NCc1ccccc1)OCC1OC(n2ccc(=O)[nH]c2=O)C(C)(F)C1O (stereo not drawn) [F3] | – | potent anti-HCV activity |
| could not be detected | could not be detected | Cc1ccccc1CO[P@](=O)(N[C@H](C)C(=O)OC(C)C)OCC1OC(n2cc(F)c(=O)[nH]c2=O)CC1O (single isomer, unassigned) [FDURPAE (F5)] | significantly improved oral bioavailability | – |
